According to ChEMBL document CHEMBL1909046, “DrugMatrix in vitro pharmacology data”:
pIC50, pKi: −log10 of the molar value.

Columns and labels:
[1] = target: Beta-3 adrenergic receptor (Homo sapiens, UniProt P13945); assay: DRUGMATRIX: Adrenergic beta3 radioligand binding (ligand: [125I] Cyanopindolol); format: cell membranes, HEK293, Membrane; conditions: Not Active = under 50% inhibition at 10 µM; for IC50: hek293
[2] = target: T1, Polyunsaturated fatty acid lipoxygenase ALOX15 (Oryctolagus cuniculus, UniProt P12530); assay: biochemical; format: tissue-based, Reticulocytes; conditions: reticulocytes;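 note: inhibition of 15-lipoxygenase enzyme activity measured with linoleic acid as the substrate; in other assays of this panel Not Active means under 50% inhibition at 10 µM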
T1 sequence (P12530 whole entry): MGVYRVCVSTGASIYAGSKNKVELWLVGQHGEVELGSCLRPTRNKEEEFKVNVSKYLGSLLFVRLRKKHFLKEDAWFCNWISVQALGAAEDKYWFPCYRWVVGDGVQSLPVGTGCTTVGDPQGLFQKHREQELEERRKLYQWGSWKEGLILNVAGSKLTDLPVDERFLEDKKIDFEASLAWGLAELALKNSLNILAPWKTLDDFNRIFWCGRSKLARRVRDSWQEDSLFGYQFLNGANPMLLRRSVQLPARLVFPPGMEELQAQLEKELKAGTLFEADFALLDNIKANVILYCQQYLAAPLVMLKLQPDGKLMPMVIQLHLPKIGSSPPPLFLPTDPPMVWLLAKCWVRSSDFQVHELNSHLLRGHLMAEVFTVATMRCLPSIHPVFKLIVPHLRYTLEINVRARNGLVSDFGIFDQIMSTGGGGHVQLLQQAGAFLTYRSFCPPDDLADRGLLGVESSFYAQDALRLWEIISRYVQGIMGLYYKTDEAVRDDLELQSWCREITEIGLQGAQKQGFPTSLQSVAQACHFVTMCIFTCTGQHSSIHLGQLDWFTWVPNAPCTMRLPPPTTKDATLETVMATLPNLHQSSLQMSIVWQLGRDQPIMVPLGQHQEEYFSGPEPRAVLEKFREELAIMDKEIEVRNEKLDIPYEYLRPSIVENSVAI

[3] = DRUGMATRIX: Phosphodiesterase PDE3 enzyme inhibition (substrate: [3H]cAMP + cAMP); format: tissue-based, Homo sapiens; conditions: platelet; Not Active = under 50% inhibition at 10 µM
[4] = target: Carbonic anhydrase 2 (Homo sapiens, UniProt P00918); assay: DRUGMATRIX: Carbonic Anhydrase II enzyme inhibition (substrate: 4-Nitrophenyl acetate (4-NPA)); format: tissue-based, Erythrocyte; conditions: erythrocyte; Not Active = under 50% inhibition at 10 µM
[5] = target: T2, Neuropeptide Y receptor type 2 (Homo sapiens, UniProt P49146); format: cell membranes, Membrane; conditions: kan-ts; note: in other assays of this panel Not Active means under 50% inhibition at 10 µM
T2 sequence (P49146 whole entry): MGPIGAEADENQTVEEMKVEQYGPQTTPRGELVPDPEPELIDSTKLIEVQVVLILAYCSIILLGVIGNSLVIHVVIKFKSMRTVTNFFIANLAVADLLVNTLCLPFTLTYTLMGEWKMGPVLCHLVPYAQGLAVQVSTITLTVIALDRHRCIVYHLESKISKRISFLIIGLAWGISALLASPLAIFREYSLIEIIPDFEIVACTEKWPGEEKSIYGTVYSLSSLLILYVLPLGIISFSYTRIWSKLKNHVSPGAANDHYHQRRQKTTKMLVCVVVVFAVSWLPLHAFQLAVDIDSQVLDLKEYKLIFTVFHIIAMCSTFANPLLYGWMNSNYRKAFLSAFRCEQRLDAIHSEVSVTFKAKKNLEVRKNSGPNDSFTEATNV

[6] = target: T3, Amine oxidase [flavin-containing] A (Homo sapiens, UniProt P21397); assay: DRUGMATRIX: Monoamine Oxidase MAO-A enzyme inhibition (substrate: Kynuramine); design: species or system BTI-TN-5B1-4; conditions: bti-tn-5b1-4; Not Active = under 50% inhibition at 10 µM
T3 sequence (P21397 whole entry): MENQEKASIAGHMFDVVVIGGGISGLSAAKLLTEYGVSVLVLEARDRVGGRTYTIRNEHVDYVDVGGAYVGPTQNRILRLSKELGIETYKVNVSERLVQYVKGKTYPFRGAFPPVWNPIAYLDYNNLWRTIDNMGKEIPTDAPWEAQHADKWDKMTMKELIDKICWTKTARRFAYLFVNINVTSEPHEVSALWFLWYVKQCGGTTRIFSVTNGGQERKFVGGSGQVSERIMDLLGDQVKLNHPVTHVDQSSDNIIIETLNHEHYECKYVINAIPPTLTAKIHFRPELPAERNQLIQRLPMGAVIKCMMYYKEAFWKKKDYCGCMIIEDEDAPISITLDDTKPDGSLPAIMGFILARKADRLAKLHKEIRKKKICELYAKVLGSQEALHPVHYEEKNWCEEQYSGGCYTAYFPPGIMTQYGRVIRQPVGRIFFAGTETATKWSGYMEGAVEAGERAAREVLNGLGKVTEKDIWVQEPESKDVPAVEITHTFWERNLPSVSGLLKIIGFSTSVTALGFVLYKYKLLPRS

[7] = target: T4, 5-hydroxytryptamine receptor 1A (Rattus norvegicus, UniProt P19327); format: cell membranes, CHO-K1, Membrane; conditions: for IC50: cho-k1; for pIC50: read-out: IC50; for pKi: read-out: Ki; for all read-outs here: in other assays of this panel Not Active means under 50% inhibition at 10 µM
T4 sequence (P19327 whole entry): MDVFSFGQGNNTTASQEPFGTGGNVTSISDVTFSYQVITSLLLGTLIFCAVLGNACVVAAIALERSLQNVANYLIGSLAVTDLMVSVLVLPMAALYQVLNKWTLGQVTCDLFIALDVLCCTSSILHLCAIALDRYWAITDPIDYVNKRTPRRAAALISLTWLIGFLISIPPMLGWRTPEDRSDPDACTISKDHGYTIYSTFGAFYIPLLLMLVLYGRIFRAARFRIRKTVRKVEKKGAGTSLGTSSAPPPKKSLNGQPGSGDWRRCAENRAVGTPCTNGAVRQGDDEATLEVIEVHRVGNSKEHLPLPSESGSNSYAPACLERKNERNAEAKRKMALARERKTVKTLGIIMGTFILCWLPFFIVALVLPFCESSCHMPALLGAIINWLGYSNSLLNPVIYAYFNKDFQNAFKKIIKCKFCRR

[8] = DRUGMATRIX: Glutamate, NMDA, Agonism radioligand binding (ligand: [3H] CGP-39653); format: cell membranes, Rattus norvegicus, Wistar, Cerebral cortex, Membrane; conditions: Not Active = under 50% inhibition at 10 µM

Chain of Beta-3 adrenergic receptor (P13945 whole entry): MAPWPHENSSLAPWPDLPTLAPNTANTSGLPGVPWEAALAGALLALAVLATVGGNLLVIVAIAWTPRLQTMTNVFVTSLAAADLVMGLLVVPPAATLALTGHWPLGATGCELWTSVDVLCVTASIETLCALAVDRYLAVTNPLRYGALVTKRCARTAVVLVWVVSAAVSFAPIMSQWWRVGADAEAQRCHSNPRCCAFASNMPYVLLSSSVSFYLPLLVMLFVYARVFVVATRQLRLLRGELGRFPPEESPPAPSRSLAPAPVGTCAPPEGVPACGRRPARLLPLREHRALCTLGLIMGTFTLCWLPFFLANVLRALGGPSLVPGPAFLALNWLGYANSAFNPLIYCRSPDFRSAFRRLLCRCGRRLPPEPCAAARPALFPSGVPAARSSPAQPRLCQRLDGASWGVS

Row | Structure (SMILES) | IC50 [1] | IC50 [2] | IC50 [3] | Ki [3] | IC50 [4] | IC50 [5] | IC50 [6] | IC50 [7] | IC50 [8] | Ki [8] | pIC50 ([1]; read-out: IC50) | pKi ([1]; read-out: Ki) | pIC50 [7] | pKi [7]
1 | CCCCC(=O)N(Cc1ccc(-c2ccccc2-c2nnn[nH]2)cc1)[C@H](C(=O)O)C(C)C | Not Active | Not Active | Not Active | Not Active | Not Active | Not Active | Not Active | Not Active | Not Active | Not Active | – | – | – | –
2 | O=C(O)COc1ccc(C(=O)c2cccs2)c(Cl)c1Cl | Not Active | Not Active | Not Active | Not Active | Not Active | Not Active | Not Active | Not Active | Not Active | Not Active | – | – | – | –
3 | CN1[C@@H]2CC[C@H]1C[C@@H](OC(c1ccccc1)c1ccccc1)C2 [BENZTROPINE] | Not Active | Not Active | – | – | Not Active | Not Active | Not Active | Not Active | – | – | – | – | – | –
4 | C[C@@](Cc1ccc(O)c(O)c1)(NN)C(=O)O.O [CARBIDOPA] | Not Active | Not Active | Not Active | Not Active | Not Active | Not Active | Not Active | Not Active | Not Active | Not Active | – | – | – | –
5 | CN1CCN(C2=Nc3cc(Cl)ccc3Nc3ccccc32)CC1 [CLOZAPINE] | Not Active | Not Active | – | – | Not Active | Not Active | Not Active | – | – | – | – | – | – | –
6 | CC(C)NC[C@@H](O)COc1cccc2ccccc12 [DEXPROPRANOLOL] | Not Active | Not Active | – | – | Not Active | Not Active | Not Active | – | – | – | – | – | – | –
7 | CC(C)NC[C@H](O)COc1cccc2ccccc12 [LEVOPROPRANOLOL] | – | Not Active | – | – | Not Active | Not Active | Not Active | – | – | – | – | – | – | –
8 | O=C(O)CCCCC1CCSS1 (stereo not drawn) [LIPOIC ACID, ALPHA] | Not Active | Not Active | Not Active | Not Active | Not Active | Not Active | Not Active | Not Active | Not Active | Not Active | – | – | – | –
9 | CN(C)C(=O)C(CCN1CCC(O)(c2ccc(Cl)cc2)CC1)(c1ccccc1)c1ccccc1 [LOPERAMIDE] | – | Not Active | – | – | Not Active | Not Active | Not Active | Not Active | – | – | – | – | – | –
10 | Clc1ccc(COC(Cn2ccnc2)c2ccc(Cl)cc2Cl)c(Cl)c1 (stereo not given) [MICONAZOLE] | – | Not Active | – | – | Not Active | Not Active | Not Active | – | – | – | 5.26 | 5.39 | 4.94 | 5.18
11 | Oc1ccc2c3c1O[C@H]1[C@@H](O)CC[C@@]4(O)[C@@H](C2)N(CC2CCC2)CC[C@]314 [NALBUPHINE] | Not Active | Not Active | – | – | Not Active | Not Active | Not Active | Not Active | – | – | – | – | – | –
12 | C[C@]12C=CC(=O)C=C1CC[C@@H]1[C@@H]2C(=O)C[C@@]2(C)[C@H]1CC[C@]2(O)C(=O)CO [PREDNISONE] | Not Active | Not Active | Not Active | Not Active | Not Active | Not Active | Not Active | Not Active | Not Active | Not Active | – | – | – | –
13 | OCCOCCN1CCN(C2=Nc3ccccc3Sc3ccccc32)CC1 [QUETIAPINE] | Not Active | Not Active | – | – | Not Active | Not Active | Not Active | – | – | – | – | – | – | –
14 | COC(=O)[C@H]1[C@H]2C[C@@H]3c4[nH]c5cc(OC)ccc5c4CCN3C[C@H]2C[C@@H](OC(=O)c2cc(OC)c(OC)c(OC)c2)[C@@H]1OC [RESERPINE] | Not Active | Not Active | Not Active | Not Active | Not Active | Not Active | Not Active | Not Active | Not Active | Not Active | – | – | – | –
15 | O=C(O)c1ccccc1O [SALICYLIC ACID] | Not Active | Not Active | Not Active | Not Active | Not Active | Not Active | Not Active | Not Active | Not Active | Not Active | – | – | – | –
16 | C[S+]([O-])c1ccc(-c2nc(-c3ccncc3)c(-c3ccc(F)cc3)[nH]2)cc1 (stereo not given) [SB-203580] | Not Active | Not Active | – | – | Not Active | Not Active | Not Active | Not Active | – | – | – | – | – | –
17 | CC1CCC(NC(=O)N(CCCl)N=O)CC1 (stereo not given) [SEMUSTINE] | Not Active | Not Active | Not Active | Not Active | Not Active | Not Active | Not Active | Not Active | Not Active | Not Active | – | – | – | –
18 | O=C1C[C@@H]2OCC=C3CN4CC[C@]56c7ccccc7N1[C@H]5[C@H]2[C@H]3C[C@H]46 [STRYCHNINE] | Not Active | Not Active | Not Active | Not Active | Not Active | Not Active | Not Active | Not Active | Not Active | Not Active | – | – | – | –
19 | C[N+](C)(C)CCOC(=O)CCC(=O)OCC[N+](C)(C)C.[Cl-].[Cl-] [SUCCINYLCHOLINE CHLORIDE] | Not Active | Not Active | Not Active | Not Active | Not Active | Not Active | Not Active | Not Active | Not Active | Not Active | – | – | – | –
20 | Nc1ccc(S(=O)(=O)NC(=O)c2ccccc2)cc1 [SULFABENZAMIDE] | Not Active | Not Active | Not Active | Not Active | Not Active | Not Active | Not Active | Not Active | Not Active | Not Active | – | – | – | –
21 | CCCCCCCCNC(C)C(O)c1ccc(SC(C)C)cc1 (stereo not given) [SULOCTIDIL] | – | Not Active | Not Active | Not Active | Not Active | Not Active | Not Active | – | Not Active | Not Active | – | – | 6.26 | 6.51
